Laboratory results taken from US20220362199A1, “ENRICHED POLYUNSATURATED FATTY ACID COMPOSITIONS” (NUSEED NUTRITIONAL US INC., priority 2019, published 2022).

Tested on: LPS-stimulated human peripheral blood mononuclear cells (PBMCs)
Test: In vitro inhibition of LPS-stimulated cytokine/chemokine/growth factor production (Milliplex 38-plex)
Type: cell-based
Conditions: for Inhibitory scale (0-5): D1 PBMC, 1 ng/mL LPS, 0 = no or very minimal inhibition, 1 to 2.5 = IFNγ, IL-1 series, IP-10, MCP-1, 3 = TNFα also, above 3 = some T cell cytokines, 5 = all cytokines inhibited; for immunomodulatory response type: approximately 10 μM, stimulatory = signal above 130%, inhibitory = signal below 70% of LPS-stimulated control (no FFA added); for inhibitory activity on inflammatory cytokines: preliminary study, LPS-stimulated PBMC

With ETA [Syn ETA] the “inhibitory effect on more than half the analytes” value (30 μM dose, >50% reduction compared to LPS-stimulated control) was “strong inhibitory effect”, the “Inhibitory scale (0-5)” value ([…]) was 4.75 and the immunomodulatory response type was “both stimulatory and inhibitory responses”.
With `CC/C=C\C/C=C\C/C=C\C/C=C\C/C=C\CCCCCC(=O)O` [DPAn-3, Docosapentaenoic acid n-3] the “inhibitory activity on inflammatory cytokines” value (fatty acid as primary component or at higher amount in the preparation) was “significant inhibitory activity”.
Eicosatetraenoic acid [ETA] was tested, and the “inhibitory activity on inflammatory cytokines” value ([…]) was “significant inhibitory activity”.
In the case of `CC/C=C\C/C=C\C/C=C\C/C=C\C/C=C\CCCCCC(=O)O` [Syn DPA, DPA], the “Inhibitory scale (0-5)” value (30 μM FFA preparation) was 4.0 and the immunomodulatory response type was “both stimulatory and inhibitory responses”.
